Results: article PMC11459966, “Oral pharmacokinetics and efficacy of oral phospholipid remdesivir nucleoside prodrugs against SARS-CoV-2 in mice” (Antimicrobial Agents and Chemotherapy, 2024)
Like-named read-outs stand apart in the source and are kept apart here. Marks after values point to notes of the source that are not given here.

Experiments:
[1] = test system: SARS-CoV-2 B.1.351 (Beta variant); format: in vivo, BALB/c mice; conditions: for reduction of lung titers: mouse, in vivo, po, 80 mg/kg; for effect on lung titers at day 4 post-infection / lung titers vs limit of detection at day 4 post-infection / weight loss at 2 dpi compared to vehicle-treated mice / lung histopathology scores at 4 dpi / effect on lung titers at day 2 / effect on lung titers at 4 dpi (significant reduction): prophylaxis; for effect on lung titers at day 4 post-infection: 27 mg/kg or 80 mg/kg once daily PO; for antiviral effects on lung titers at 2 dpi: prophylaxis, 8, 27 or 80 mg/kg once daily PO; for lung titers vs limit of detection at day 4 post-infection: once daily PO, for V2067 even at 8 mg/kg; for weight loss at 2 dpi compared to vehicle-treated mice: V2043 80 mg/kg, V2053 27 and 80 mg/kg, V2067 all doses; for weight loss at 2 dpi compared to vehicle-treated mice / effect on lung titers at 4 dpi (significant reduction): obeldesivir 10 or 30 mg/kg BID; for lung histopathology scores at 4 dpi: GS-5245 30 mg/kg BID, V2053 8 mg/kg, H&E; for effect on lung titers at day 2: EIDD-2801 100 mg/kg BID, GS-5245 10 or 30 mg/kg BID; for effect on lung titers at day 2 / effect on lung titers at 4 dpi (significant reduction): PO; for effect on lung titers at 4 dpi (significant reduction): comparators: EIDD-2801 100 mg/kg BID, remdesivir 25 mg/kg BID
[2] = test system: SARS-CoV-2 B.1.351 (Beta variant); format: in vivo, BALB/c mice; conditions: for level of infectious SARS-CoV-2 in the lung at 2 dpi compared to vehicle: V2043, V2053, V2067 at 27 or 80 mg/kg; for lung infectious units vs limit of detection at 4 dpi: V2043 and V2067 27 and 80 mg/kg, V2053 80 mg/kg once daily, EIDD-2801 100 mg/kg BID, GS-5245 30 mg/kg BID; for Daily dose required to reach below the limit of detection on day 4 post-infection / Molar daily dose required to reach below the limit of detection on day 4 post-infection / reduction of lung infectious units compared to vehicle: mouse, in vivo; for reduction of lung infectious units compared to vehicle: po, 80 mg/kg; for lung titers reduced to below the limit of detection at 4 dpi: GS-5245 10 mg/kg BID, remdesivir 25 mg/kg BID
[3] = daily dose derived from prophylaxis experiment (Fig. 4)

SMILES | reduction of lung titers [1] [Log10] | effect on lung titers at day 4 post-infection [1] | antiviral effects on lung titers at 2 dpi [1] | lung titers vs limit of detection at day 4 post-infection [1] | weight loss at 2 dpi compared to vehicle-treated mice [1] | level of infectious SARS-CoV-2 in the lung at 2 dpi compared to vehicle [2] | lung infectious units vs limit of detection at 4 dpi [2] | Daily dose required to reach below the limit of detection on day 4 post-infection [2] [mg/kg] | Molar daily dose required to reach below the limit of detection on day 4 post-infection [2] [µmol/kg] | reduction of lung infectious units compared to vehicle [2] [log10] | lung histopathology scores at 4 dpi [1] | Daily dose required to reach below the limit of detection on day 4 post-infection [1, 3] | Fold ∆ vs MPV (molar daily dose) [1, 3] [×] | Fold ∆ vs OBDV (molar daily dose) [1, 3] [×] | Molar daily dose required to reach below the limit of detection on day 4 post-infection [1, 3] [µmol/kg] | Fold ∆ vs MPV (molar daily dose) ([2]; therapeutic model) [×] | Fold ∆ vs OBDV (molar daily dose) ([2]; therapeutic model) [×] | effect on lung titers at day 2 [1] | effect on lung titers at 4 dpi (significant reduction) [1] | lung titers reduced to below the limit of detection at 4 dpi [2]
CCCCCCCCCCCCCCCCCCOC[C@H](COP(=O)(O)OC[C@H]1O[C@@](C#N)(c2ccc3c(N)ncnn23)[C@H](O)[C@@H]1O)OCc1ccccc1 [Compound V2043, 1-O-octadecyl-2-O-benzyl-sn-glyceryl-P-RVn] | 2.29 | significantly reduced lung titers | dose-dependent antiviral effects | below the limit of detection in all animals | lost less weight | significantly reduced | below the limit of detection in all animals | 27 | 34.3 | 3.1 |  |  |  |  |  |  |  |  |  | 
CCCCCCCCC=CCCCCCCCCOCC(COP(=O)(O)OCC1OC(C#N)(c2ccc3c(N)ncnn23)C(O)C1O)OCc1ccc(OC)c(F)c1 (stereo not drawn) [Compound V2053] |  | significantly reduced lung titers | dose-dependent antiviral effects |  | lost less weight | significantly reduced | below the limit of detection in all animals |  |  | 3.0 | small but significant reductions |  |  |  |  |  |  |  |  | 
CCCCCCCCCCCCCCCCCCOCC(COP(=O)(O)OC[C@H]1O[C@@](C#N)(c2ccc3c(N)ncnn23)[C@H](O)[C@@H]1O)OCc1ccc(C#N)cc1 (stereo partly drawn) [Compound V2067] | 1.83 | significantly reduced lung titers | dose-dependent antiviral effects | below the limit of detection in all animals | lost less weight | significantly reduced | below the limit of detection in all animals | 27 | 33.2 | 3.2 |  | 8^a mg/kg | 61.9 | 16.9 | 9.8 | 18.2 | 5.0 |  |  | 
CC(C)C(=O)OC[C@H]1O[C@@H](n2ccc(NO)nc2=O)[C@H](O)[C@@H]1O [EIDD-2801, reference compound] |  |  |  |  |  |  | reduced lung titers to below the limit of detection | 200 | 607 |  |  |  |  |  |  |  |  | significantly reduced lung titers | significantly reduced lung titers | 
CC(C)C(=O)OC[C@H]1O[C@@](C#N)(c2ccc3c(N)ncnn23)[C@H](O)[C@@H]1O [Obeldesivir GS-5245, reference compound] |  |  |  |  | lost less weight |  | reduced lung titers to below the limit of detection | 60 | 166 |  | small but significant reductions |  |  |  |  |  |  | significantly reduced lung titers | did not | did not
CCC(CC)COC(=O)[C@H](C)N[P@](=O)(OC[C@H]1O[C@@](C#N)(c2ccc3c(N)ncnn23)[C@H](O)[C@@H]1O)Oc1ccccc1 [remdesivir] |  |  |  |  |  |  |  |  |  |  |  |  |  |  |  |  |  |  | did not | did not
